Laboratory results from article PMC7290078, “Agonist bias and agonist‐dependent antagonism at corticotrophin releasing factor receptors” (Pharmacology Research & Perspectives, 2020).
No end group written: not given here.

Assays:
[1] = biological target: T1, CRF2 receptor (hCRF2α) (Homo sapiens, UniProt Q13324); assay: ERK1/2 phosphorylation (AlphaLISA Surefire Ultra) in Cos7 cells transfected with hCRF2α; assay type: cell-based
T1 construct: host or cells: Cos7 cells, transient transfection (PEI), pcDNA3.0/3.1 vector
T1 sequence (Q13324 1-411): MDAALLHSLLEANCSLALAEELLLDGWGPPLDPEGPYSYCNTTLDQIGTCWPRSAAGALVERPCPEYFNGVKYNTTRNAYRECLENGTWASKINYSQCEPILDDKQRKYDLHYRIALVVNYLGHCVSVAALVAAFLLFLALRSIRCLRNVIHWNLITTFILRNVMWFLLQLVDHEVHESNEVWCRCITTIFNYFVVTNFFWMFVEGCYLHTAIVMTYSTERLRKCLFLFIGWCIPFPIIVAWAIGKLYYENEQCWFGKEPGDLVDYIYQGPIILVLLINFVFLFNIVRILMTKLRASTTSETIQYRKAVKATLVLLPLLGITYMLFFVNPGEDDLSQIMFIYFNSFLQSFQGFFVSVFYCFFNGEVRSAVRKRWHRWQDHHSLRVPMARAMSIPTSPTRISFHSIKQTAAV
Description: (§1) Plasmids containing hCRF1α and hCRF2α (GenBank accession numbers AY457172 and AY449734) were obtained from the cDNA Resource Centre (Bloomsburg University) and are referred to as CRF1 and CRF2 in this manuscript. Hemagglutinin (HA) epitope‐tagged human Calcitonin (CT) receptor (CT(a) splice variant) and myc‐tagged human RAMP1 were used as described previously. ^27 HA‐tagged human calcitonin receptor‐like receptor (CLR), N‐terminal FLAG‐tagged human RAMP3 and N‐terminal myc‐tagged human RAMP3 were a gift from Professor David Poyner (Aston University) and Professor Patrick Sexton (Monash University), respectively. N‐terminal FLAG‐tagged human RAMP2 was used as described previously. ^28 All receptors and RAMPs were cloned in pcDNA3.0 or pcDNA3.1 plasmid vectors. All plasmid inserts were sequenced at the Centre for Genomics, Proteomics and Metabolomics (University of Auckland) and the sequences were verified prior to use.
(§2) Cos7, HEK‐293S, and HEK‐293T cells were cultured as described previously. ^28 , ^29 Cos7 cells were originally supplied by the ATCC to Associate Professor Nigel Birch (University of Auckland). HEK‐293S cells were a gift from Professor David Poyner (Aston University) and HEK‐293T cells a gift from Professor John Taylor (University of Auckland). Briefly, all cell lines were cultured in Dulbecco's Modified Eagle Medium (DMEM) supplemented with 8% heat inactivated fetal bovine serum (FBS) and maintained in a humidified incubator at 37°C with 5% CO2. For transfection, cells were counted (Countess CounterTM; Life Technologies) and plated at a density of 20 000 cells per well in 96‐well plates. The cells were transiently transfected 48 hours prior to assaying using polyethylenimine (PEI), as described previously. ^28 , ^29 In all experiments a total of 0.25 μg DNA was transfected per well. In the majority of experiments 0.25 μg DNA of receptor‐containing plasmid or the pcDNA3.1 plasmid without an insert was used. For experiments involving RAMPs, 0.125 μg of receptor DNA and 0.125 μg of RAMP‐containing plasmid DNA were transfected to give a 1:1 ratio of receptor to RAMP. Where the RAMP or receptor were transfected alone, the ratio of DNA was made up with the pcDNA3.1 plasmid.
The AlphaLISA Surefire Ultra extracellular signal‐regulated kinase 1/2 (ERK1/2) phosphorylation (pERK1/2) assay kit (PerkinElmer Life and Analytical Sciences) was used to measure pERK1/2 in cell lysates after agonist stimulation. For these assays 20% FBS was used as a positive control. Following peptide stimulation at 37°C for 0‐30 minutes with 100 nmol/L agonist (time courses) or 7 minutes with media alone or 1 pmol/L to 1 µmol/L agonist, media was removed and 20 µL of lysis buffer added to each well. Plates were shaken at room temperature for 10 minutes. Each sample was then transferred to a 384‐well optiplate and pERK1/2 measurement performed as per the manufacturer's instructions. Samples were read using an Envision plate reader (PerkinElmer).
In all experiments the position of peptides and antagonists (pharmacology) or transfected receptors (ELISAs) on assay plates was randomized during each independent experiment, which are independent biological replicates. In all cases, duplicate, triplicate, or quadruplicate technical replicates were conducted for each independent experiment. For transfected cell experiments, each independent experiment involved plating cells from a distinct passage, separate transient transfection and separate signaling or ELISA assays, constituting experimental n. For ERK1/2 and IP1 signaling pathways, time‐course experiments were first conducted with a saturating concentration of UCN1 to determine the optimal time to conduct concentration‐response experiments. Concentration‐response experiments were then conducted with the same experimental design for cAMP, ERK1/2, and IP1 pathways. […] All group sizes were designed to be equal at n = 5 independent experiments.

[2] = biological target: T1, CRF2 receptor (hCRF2α); assay: cAMP accumulation (LANCE) in Cos7 cells transfected with hCRF2α, agonist stimulation; assay type: cell-based
Description: as §1, §2
cAMP accumulation in Cos7 cells transfected with hCRF1α or hCRF2α receptors was measured using the LANCE cAMP detection assay kit (PerkinElmer Life and Analytical Sciences) as described previously. ^30 Briefly, culture media was removed and replaced with DMEM containing 0.1% bovine albumin serum (BSA) and 1 mmol/L 3‐isobutyl‐1‐methylxanthine (IBMX) for 30 minutes at 37°C. Cells were incubated for an additional 15 minutes at 37°C with media or agonist concentrations of 1 pmol/L to 1 µmol/L for agonist only assays or 10 pmol/L to 10 µmol/L concentrations for antagonist experiments. Antagonists were added simultaneously or immediately prior to the addition of agonists. To stop cell stimulation and extract cAMP, the contents of the wells were replaced with 50 µL absolute ethanol. Samples were left at −20°C for a minimum of 10 minutes. The ethanol was evaporated and replaced with 50 µL of cAMP detection buffer. Samples were shaken for 15 minutes before 5 µL cell lysate was transferred to a white 384‐well optiplate and processed for cAMP quantification as described previously. ^31 Samples were read using an Envision plate reader (PerkinElmer). cAMP concentrations were determined from a standard curve generated in duplicate.
In all experiments the position of peptides and antagonists (pharmacology) or transfected receptors (ELISAs) on assay plates was randomized during each independent experiment, which are independent biological replicates. In all cases, duplicate, triplicate, or quadruplicate technical replicates were conducted for each independent experiment.

Substance | EC50 ([1]; pERK1/2, hCRF2α, Cos7, 7 min at 37°C, 1 pmol/L to 1 µmol/L agonist, mean ± SEM, n = 5) [nM] | EC50 ([2]; cAMP, hCRF2α, Cos7, 15 min at 37°C, 1 mmol/L IBMX, 1 pmol/L to 1 µmol/L agonist, mean ± SEM, n = 5) [nM] | ability to produce pERK1/2, comparison of peptides ([1]; CRF2 receptor) | concentration‐dependent increase in pERK1/2 ([1]; CRF2 receptor) | Hill slope ([1]; pERK1/2, CRF2 receptor) | Δlog(τ/K A) (relative efficacy) ([1]; pERK1/2, hCRF2α, reference agonist UCN1, mean ± SEM, n = 5) | ΔΔlog(τ/K A) (signaling bias) ([1]; pERK1/2 relative to cAMP, hCRF2α, reference agonist UCN1, mean ± SEM, n = 5) | concentration‐dependent increase in cAMP ([2]; CRF2 receptor) | ΔΔlog(τ/K A) (signaling bias) ([2]; cAMP (reference pathway), hCRF2α, reference agonist UCN1, mean ± SEM, n = 5) | Hill slope ([2]; cAMP, CRF2 receptor) | Δlog(τ/K A) (relative efficacy) ([2]; cAMP, hCRF2α, reference agonist UCN1, mean ± SEM, n = 5)
DNPSLSIDLTFHLLRTLLELARTQSQRERAEQNRIIFDSV-NH2 [UCN1] | 5.62 | 0.0955 | – | – | – | – | – | – | – | – | –
IVLSLDVPIGLLQILLEQARARAAREQATTNARILARVGHC-NH2 (C-terminus assumed) [UCN2] | – | – | no significant difference | concentration‐dependent increases | 0.23 | −0.19 ± 0.42 | 0.36 ± 0.46 | concentration‐dependent increases | 0.00 ± 0.27 | not significantly different from one | −0.55 ± 0.19
